Reference: ChEMBL document CHEMBL5260854, “Discovery of Novel TRPM8 Blockers Suitable for the Treatment of Somatic and Ocular Painful Conditions: A Journey through pKa and LogD Modulation” (J Med Chem, 2021)
Converted amounts (≈) assume the structure as drawn. Each block holds one molecule with its values, some of them ahead of it. The source made the active and inactive calls. No cut-off for these calls is given here.

Key:
[1] = molecular target: T1, Transient receptor potential cation channel subfamily M member 8 (Homo sapiens, UniProt Q7Z2W7); experiment: Inhibition of human TRPM8 expressed in HEK293 cells assessed as reduction in ethyl 4-methoxy-2-phenylthiazole-5-carboxylate induced Ca2+ efflux preincubated for 5 mins followed by ethyl 4-methoxy-2-phenylthiazole-5-carboxylate addition and measured for 3 mins by FLIPR assay; type: cell-based
[2] = Dissociation constant, pKa of the compound; type: physicochemical
[3] = Solubility of compound at pH 7.4; type: physicochemical; details: buffer
[4] = Metabolic stability in human liver S9 fraction assay as half life in presence of NADPH, glutathione, UDPGA and PAPS; type: ADME, subcellular
[5] = Apparent permeability in HCECs at 0.1%; type: ADME, cell-based, HCEC; details: human, not told
[6] = Lipophilicity, logD of the compound at pH 7.4; type: physicochemical; details: buffer
[7] = Metabolic stability in rat liver microsomes assessed as phase 1 metabolism by measuring half life; type: ADME, Microsome
[8] = Metabolic stability in rat liver microsomes assessed as phase 2 metabolism by measuring half life; type: ADME, Microsome
[9] = Half life in rat at 10 mg/kg, iv; type: ADME, organism-based; details: in vivo
[10] = Volume of distribution at steady state in rat at 10 mg/kg, iv; type: ADME, organism-based; details: in vivo, read-out: Vdss
[11] = Half life in rat at 10 mg/kg, po; type: ADME, organism-based; details: in vivo
[12] = Oral bioavailability in rat at 10 mg/kg; type: ADME, organism-based; details: in vivo
[13] = Clearance in rat at 10 mg/kg, iv; type: ADME, organism-based; details: in vivo
[14] = Stability in stimulated gastric fluid at pH 1.2; type: physicochemical; details: simulated gi fluid
[15] = Cmax in rat at 10 mg/kg, po; type: ADME, organism-based; design: dose 10 mg/kg, route po; details: in vivo
[16] = Metabolic stability in rat liver microsomes assessed as parent compound remaining after 4 hrs; type: ADME, Microsome; details: read-out: Stability
[17] = Lipophilicity, logP of compound; type: physicochemical; details: octanol/water
[18] = Metabolic stability in rat liver microsomes assessed as parent compound remaining after 30 mins; type: ADME, Microsome; details: for remaining at 0.5 h: read-out: Stability
[19] = Stability in human hepatocytes assessed as half life; type: ADME, cell-based, Hepatocyte
[20] = Stability in human plasma assessed as compound remaining after 60 mins; type: ADME, cell-free; details: read-out: Stability
[21] = Stability in rat plasma assessed as compound remaining after 60 mins; type: ADME, cell-free; details: read-out: Stability
[22] = Clearance in rat at 3 mg/kg, iv; type: ADME, organism-based; details: in vivo
[23] = Half life in rat at 3 mg/kg, iv; type: ADME, organism-based; details: in vivo
[24] = Volume of distribution at steady state in rat at 3 mg/kg, iv; type: ADME, organism-based; details: in vivo, read-out: Vdss
[25] = molecular target: Transient receptor potential cation channel subfamily V member 4 (Homo sapiens) (UniProt Q9HBA0); experiment: Inhibition of TRPV4 (unknown origin) upto 100 uM
[26] = molecular target: Transient receptor potential cation channel subfamily A member 1 (Homo sapiens) (UniProt O75762); experiment: Inhibition of TRPA1 (unknown origin) upto 100 uM
[27] = molecular target: Transient receptor potential cation channel subfamily V member 1 (Homo sapiens) (UniProt Q8NER1); experiment: Inhibition of TRPV1 (unknown origin) upto 100 uM
[28] = molecular target: Sodium channel protein type 9 subunit alpha (Homo sapiens) (UniProt Q15858); experiment: Inhibition of Nav1.7 (unknown origin)
[29] = molecular target: T1, Transient receptor potential cation channel subfamily M member 8; experiment: Inhibition of human TRPM8 expressed in HEK293 cells assessed as reduction in icilin induced Ca2+ efflux preincubated for 5 mins followed by icilin addition and measured for 3 mins by FLIPR assay; type: cell-based
[30] = Clearance in rat at 5 mg/kg, iv; type: ADME, organism-based; details: in vivo
[31] = Volume of distribution at steady state in rat at 5 mg/kg, iv; type: ADME, organism-based; details: in vivo, read-out: Vdss
[32] = Half life in rat at 5 mg/kg, iv; type: ADME, organism-based; details: in vivo
[33] = molecular target: T1, Transient receptor potential cation channel subfamily M member 8; experiment: Inhibition of human TRPM8 expressed in HEK293 cells assessed as reduction in cold stimulated Ca2+ efflux preincubated for 5 mins followed by cold stimulation and measured for 3 mins; type: cell-based
[34] = molecular target: Transient receptor potential cation channel subfamily M member 3 (Homo sapiens) (UniProt Q9HCF6); experiment: Inhibition of TRPM3 (unknown origin) upto 100 uM

T1 sequence (Q7Z2W7 whole entry): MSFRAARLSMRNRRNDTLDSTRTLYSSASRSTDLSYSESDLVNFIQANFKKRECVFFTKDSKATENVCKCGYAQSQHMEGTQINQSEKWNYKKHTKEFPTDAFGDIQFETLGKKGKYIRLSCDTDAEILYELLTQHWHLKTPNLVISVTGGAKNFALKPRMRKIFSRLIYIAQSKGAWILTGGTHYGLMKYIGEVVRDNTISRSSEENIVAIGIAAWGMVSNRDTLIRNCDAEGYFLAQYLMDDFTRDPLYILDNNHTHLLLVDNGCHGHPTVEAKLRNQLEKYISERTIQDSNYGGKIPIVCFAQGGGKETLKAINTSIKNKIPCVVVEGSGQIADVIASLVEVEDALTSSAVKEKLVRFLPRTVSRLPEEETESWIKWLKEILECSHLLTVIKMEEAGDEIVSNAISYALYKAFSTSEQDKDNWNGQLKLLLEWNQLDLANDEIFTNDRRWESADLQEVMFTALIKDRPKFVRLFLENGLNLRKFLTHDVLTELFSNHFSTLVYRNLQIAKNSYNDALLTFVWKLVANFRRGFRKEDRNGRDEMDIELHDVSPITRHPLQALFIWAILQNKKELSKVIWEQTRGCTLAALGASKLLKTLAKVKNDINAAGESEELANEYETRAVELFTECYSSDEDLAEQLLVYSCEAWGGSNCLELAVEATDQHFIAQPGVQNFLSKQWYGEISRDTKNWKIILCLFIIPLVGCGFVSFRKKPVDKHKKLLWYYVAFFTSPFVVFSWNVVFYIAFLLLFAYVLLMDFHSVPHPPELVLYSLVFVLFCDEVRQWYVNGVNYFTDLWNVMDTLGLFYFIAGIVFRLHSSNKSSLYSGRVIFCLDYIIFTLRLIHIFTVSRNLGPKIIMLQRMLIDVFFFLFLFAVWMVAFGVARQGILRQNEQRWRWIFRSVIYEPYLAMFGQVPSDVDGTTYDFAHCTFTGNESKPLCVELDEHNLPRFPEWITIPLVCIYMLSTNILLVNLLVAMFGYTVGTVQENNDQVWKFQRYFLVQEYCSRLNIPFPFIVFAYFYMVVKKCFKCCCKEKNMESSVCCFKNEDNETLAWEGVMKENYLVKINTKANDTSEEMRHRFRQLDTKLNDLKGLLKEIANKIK
Transient receptor potential cation channel subfamily V member 1 (Homo sapiens), sequence (Q8NER1 whole entry): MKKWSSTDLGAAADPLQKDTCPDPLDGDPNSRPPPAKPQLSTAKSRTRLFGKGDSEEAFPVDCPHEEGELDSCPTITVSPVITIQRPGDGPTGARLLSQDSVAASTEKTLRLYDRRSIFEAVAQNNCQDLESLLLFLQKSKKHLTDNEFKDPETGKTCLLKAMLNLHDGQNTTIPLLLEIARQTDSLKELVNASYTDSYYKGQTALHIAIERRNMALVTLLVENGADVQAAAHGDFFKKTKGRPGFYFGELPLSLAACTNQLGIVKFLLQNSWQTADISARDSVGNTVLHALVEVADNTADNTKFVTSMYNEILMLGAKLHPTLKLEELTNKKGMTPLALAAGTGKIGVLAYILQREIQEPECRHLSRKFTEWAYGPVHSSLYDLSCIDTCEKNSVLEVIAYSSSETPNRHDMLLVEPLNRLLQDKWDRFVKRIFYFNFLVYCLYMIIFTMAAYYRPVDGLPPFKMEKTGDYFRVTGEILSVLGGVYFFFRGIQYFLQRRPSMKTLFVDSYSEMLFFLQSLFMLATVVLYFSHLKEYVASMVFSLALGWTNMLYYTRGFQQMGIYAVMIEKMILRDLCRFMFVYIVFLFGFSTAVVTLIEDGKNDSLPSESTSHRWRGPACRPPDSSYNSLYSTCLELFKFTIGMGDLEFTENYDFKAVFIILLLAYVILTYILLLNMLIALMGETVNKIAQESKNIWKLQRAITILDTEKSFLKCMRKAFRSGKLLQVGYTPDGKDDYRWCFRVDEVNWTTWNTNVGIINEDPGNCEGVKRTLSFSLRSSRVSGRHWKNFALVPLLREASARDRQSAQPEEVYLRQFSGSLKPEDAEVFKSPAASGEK
Transient receptor potential cation channel subfamily V member 4 (Homo sapiens), sequence (Q9HBA0 whole entry): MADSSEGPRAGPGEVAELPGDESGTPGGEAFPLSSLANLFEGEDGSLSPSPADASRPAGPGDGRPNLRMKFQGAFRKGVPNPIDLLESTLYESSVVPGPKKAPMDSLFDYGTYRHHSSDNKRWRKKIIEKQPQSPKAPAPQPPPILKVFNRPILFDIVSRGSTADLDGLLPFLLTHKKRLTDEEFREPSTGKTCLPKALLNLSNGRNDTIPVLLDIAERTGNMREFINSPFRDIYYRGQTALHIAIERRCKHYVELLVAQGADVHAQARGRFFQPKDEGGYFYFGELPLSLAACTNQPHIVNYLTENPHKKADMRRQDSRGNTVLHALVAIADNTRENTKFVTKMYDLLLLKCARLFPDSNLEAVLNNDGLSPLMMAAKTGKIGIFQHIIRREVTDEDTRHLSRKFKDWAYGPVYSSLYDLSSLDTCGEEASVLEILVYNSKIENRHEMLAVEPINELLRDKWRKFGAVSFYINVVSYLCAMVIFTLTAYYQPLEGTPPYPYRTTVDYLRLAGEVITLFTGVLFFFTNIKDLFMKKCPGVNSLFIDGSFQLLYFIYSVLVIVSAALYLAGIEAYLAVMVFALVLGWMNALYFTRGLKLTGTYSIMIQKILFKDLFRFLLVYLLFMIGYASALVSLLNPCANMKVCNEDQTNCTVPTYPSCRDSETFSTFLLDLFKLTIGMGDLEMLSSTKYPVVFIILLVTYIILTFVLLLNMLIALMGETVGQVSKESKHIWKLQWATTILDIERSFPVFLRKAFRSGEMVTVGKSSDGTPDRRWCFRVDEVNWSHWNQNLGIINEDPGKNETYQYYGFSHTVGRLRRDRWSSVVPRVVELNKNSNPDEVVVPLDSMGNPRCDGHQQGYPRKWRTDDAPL
Transient receptor potential cation channel subfamily A member 1 (Homo sapiens), sequence (O75762 whole entry): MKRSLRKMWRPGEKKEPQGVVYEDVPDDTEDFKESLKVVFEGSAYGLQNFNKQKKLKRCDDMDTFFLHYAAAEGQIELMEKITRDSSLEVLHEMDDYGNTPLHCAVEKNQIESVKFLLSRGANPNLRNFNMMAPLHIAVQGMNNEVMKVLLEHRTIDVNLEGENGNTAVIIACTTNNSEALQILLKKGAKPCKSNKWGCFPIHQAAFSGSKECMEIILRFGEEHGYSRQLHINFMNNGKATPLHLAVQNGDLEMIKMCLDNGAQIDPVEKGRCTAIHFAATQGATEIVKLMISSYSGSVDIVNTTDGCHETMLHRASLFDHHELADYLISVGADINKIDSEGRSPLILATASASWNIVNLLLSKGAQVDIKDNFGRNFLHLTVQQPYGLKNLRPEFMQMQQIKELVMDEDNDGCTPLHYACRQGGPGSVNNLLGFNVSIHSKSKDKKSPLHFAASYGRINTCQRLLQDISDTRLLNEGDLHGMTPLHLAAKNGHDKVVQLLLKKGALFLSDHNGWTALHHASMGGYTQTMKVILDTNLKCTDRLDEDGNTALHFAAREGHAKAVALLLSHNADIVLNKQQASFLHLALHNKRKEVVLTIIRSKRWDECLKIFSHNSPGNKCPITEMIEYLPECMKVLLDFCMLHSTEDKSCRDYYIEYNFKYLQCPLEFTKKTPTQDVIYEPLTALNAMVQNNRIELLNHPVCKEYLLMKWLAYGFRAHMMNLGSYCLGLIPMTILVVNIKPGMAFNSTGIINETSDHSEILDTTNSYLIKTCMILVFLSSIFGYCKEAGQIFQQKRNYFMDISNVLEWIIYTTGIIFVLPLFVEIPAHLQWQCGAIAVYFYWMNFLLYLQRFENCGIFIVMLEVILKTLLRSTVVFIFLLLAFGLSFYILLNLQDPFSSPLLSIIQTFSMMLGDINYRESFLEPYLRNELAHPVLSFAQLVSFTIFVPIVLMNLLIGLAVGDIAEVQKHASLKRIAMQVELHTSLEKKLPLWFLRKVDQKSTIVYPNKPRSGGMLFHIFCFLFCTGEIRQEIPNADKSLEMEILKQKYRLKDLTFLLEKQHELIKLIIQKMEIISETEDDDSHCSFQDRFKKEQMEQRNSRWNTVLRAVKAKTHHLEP

IC50 [1]: 32 nM
Structure (SMILES): O=C(c1sc(-c2cccc(F)c2)nc1O)N1CCCCCO1

pKa [2]: 6.3
solubility [3]: 7.1 mM (≈ 2090 µg/mL)
half-life [4]: > 120 min
Papp at 0.1 % [5]: 16.4 ×10⁻⁶ cm/s
logD [6]: 0.82
Structure (SMILES): O=C(c1sc(-c2cccc(F)c2)nc1O)N1CCCO1

pKa [2]: 4.31
half-life [7]: 39.3 min
half-life [8]: 127 min
logD [6]: 1.18
Structure (SMILES): CCCC(=O)c1sc(-c2cccc(F)c2)nc1O

Papp at 0.1 % [5]: 36.6 ×10⁻⁶ cm/s
Structure (SMILES): CCN(CC)c1ccc2c(-c3ccccc3C(=O)O)c3ccc(=[N+](CC)CC)cc-3oc2c1.[Cl-] [RHODAMINE]

IC50 [1]: > 100000 nM
Structure (SMILES): CCOC(=O)c1sc(-c2ccccc2)nc1N

IC50 [1]: > 100000 nM
Structure (SMILES): CCOC(=O)c1oc(-c2ccc(Cl)cc2)nc1O

IC50 [1]: 950 nM
Structure (SMILES): CCOC(=O)Cc1sc(-c2ccccc2)nc1O

IC50 [1]: 1680 nM
Structure (SMILES): CCON(C)C(=O)c1sc(-c2cccc(F)c2)nc1O

IC50 [1]: 11600 nM
Structure (SMILES): CCn1nnc(-c2sc(-c3ccc(O)cc3)nc2O)n1

IC50 [1]: 286 nM
Structure (SMILES): CCn1nnc(-c2sc(-c3ccc(F)cc3)nc2O)n1

IC50 [1]: 1300 nM
Structure (SMILES): CCOC(=O)c1sc(-c2cccc(Cl)c2)nc1O

half-life [9]: 33.6 min
pKa [2]: 4.7
solubility [3]: 0.08 mM (≈ 21.4 µg/mL)
Vd [10]: 0.259 L/kg
half-life [11]: 137 min
half-life [7]: 27 min
bioavailability [12]: 15%
clearance [13]: 24 mL/min/kg
Stability [14]: 50%
IC50 [1]: 39 nM
half-life [8]: > 5 min
Cmax [15]: 2140 ng/mL
remaining at 4 h [16]: 105%
logD [6]: 1.5
Structure (SMILES): CCOC(=O)c1sc(-c2cccc(F)c2)nc1O

IC50 [1]: > 100000 nM
Structure (SMILES): O=C(c1sc(-c2cccc(F)c2)nc1O)N1CCCOC1

IC50 [1]: > 100000 nM
Structure (SMILES): CCOC(=O)c1sc(-c2ccccc2)nc1CO

pKa [2]: 4.27
half-life [7]: 59.1 min
half-life [8]: 97.8 min
logD [6]: 0.91
Structure (SMILES): CC(C)C(=O)c1sc(-c2cccc(F)c2)nc1O

logP [17]: 3.57
remaining at 0.5 h [18]: 41%
Structure (SMILES): CSc1cc(-c2ccc(Cl)cc2)[nH]n1

pKa [2]: 5.9
half-life [18]: < 30 min
solubility [3]: 0.631 mM (≈ 184 µg/mL)
half-life [19]: 56.7 min
remaining at 1 h [20]: 95%
remaining at 1 h [21]: 92%
half-life [11]: 307 min
half-life [7]: 38 min
bioavailability [12]: 1%
clearance [22]: 3.11 mL/min/kg
half-life [8]: > 5 min
Cmax [15]: 47 ng/mL
half-life [23]: 44.4 min
logD [6]: 2
Vd [24]: 0.082 L/kg
Structure (SMILES): CCn1nnc(-c2sc(-c3cccc(F)c3)nc2O)n1

IC50 [1]: > 100000 nM
Structure (SMILES): CCn1nnnc1-c1sc(-c2cccc(F)c2)nc1O

IC50 [1]: > 100000 nM
Structure (SMILES): CCOC(=O)c1sc(-c2ccccc2)nc1OC

logP [17]: 4.33
pKa [2]: 7.8
remaining at 0.5 h [18]: 29%
logD [6]: 3.19
Structure (SMILES): COc1cccc(NS(=O)(=O)c2c(C)cc(C)c([N+](=O)[O-])c2C)c1

IC50 [1]: > 100000 nM
Structure (SMILES): CCNC(=O)c1sc(-c2ccccc2)nc1O

IC50 [1]: 239 nM
Structure (SMILES): CCn1nnc(-c2sc(-c3cccc(O)c3)nc2O)n1

IC50 [1]: > 100000 nM
Structure (SMILES): O=C(O)c1sc(-c2ccccc2)nc1O

pKa [2]: 9.3
solubility [3]: 9.7 mM (≈ 2840 µg/mL)
inhibition [25]: inactive
inhibition [26]: inactive
inhibition [27]: inactive
half-life [4]: 53 min
Papp at 0.1 % [5]: 48.3 ×10⁻⁶ cm/s
inhibition [28]: inactive
IC50 [29]: 4.5 nM
logD [6]: 0.77
Structure (SMILES): O=C(c1sc(-c2ccccc2O)nc1O)N1CCCO1

IC50 [1]: > 100000 nM
Structure (SMILES): CCOC(=O)c1ccc(-c2cccc(F)c2)cc1O

IC50 [1]: 61 nM
Structure (SMILES): CCn1nnc(-c2sc(-c3cccc(N)c3)nc2O)n1

pKa [2]: 4.1
half-life [7]: 35.2 min
half-life [8]: 108 min
logD [6]: 0.77
Structure (SMILES): CC(=O)c1sc(-c2cccc(F)c2)nc1O

IC50 [1]: 12200 nM
Structure (SMILES): O=C(c1sc(-c2cccc(F)c2)nc1O)N1CCOCC1

IC50 [1]: 1800 nM
Structure (SMILES): Cc1nc(-c2sc(-c3cccc(F)c3)nc2O)no1

pKa [2]: 4.3
half-life [7]: 49.8 min
IC50 [1]: 289 nM
half-life [8]: 156 min
logD [6]: 1.35
Structure (SMILES): CC(C)CC(=O)c1sc(-c2cccc(F)c2)nc1O

IC50 [1]: 7550 nM
Structure (SMILES): CCn1nnc(-c2sc(-c3ccc(Cl)cc3)nc2O)n1

IC50 [1]: 9100 nM
Structure (SMILES): Cc1nnc(-c2sc(-c3cccc(F)c3)nc2O)o1

IC50 [1]: 16500 nM
Structure (SMILES): CCn1nnc(-c2sc(-c3c(Cl)cccc3Cl)nc2O)n1

IC50 [1]: > 100000 nM
Structure (SMILES): Oc1nc(-c2cccc(F)c2)sc1-c1nn[nH]n1

IC50 [1]: 214 nM
Structure (SMILES): Cn1nnc(-c2sc(-c3cccc(F)c3)nc2O)n1

IC50 [1]: > 100000 nM
Structure (SMILES): CCOC(=O)c1cnc(-c2ccccc2)s1

Papp at 0.1 % [5]: 1.9 ×10⁻⁶ cm/s
Structure (SMILES): O=C(O)c1ccc(C(=O)O)c(-c2c3ccc(=O)cc-3oc3cc(O)ccc23)c1 [6-Carboxyfluorescein]

clearance [30]: 5.31 mL/min/kg
solubility [3]: 15.2 mM (≈ 3820 µg/mL)
Vd [31]: 1.69 L/kg
half-life [32]: 189 min
half-life [11]: 188 min
half-life [7]: 118 min
inhibition [25]: inactive
inhibition [26]: inactive
bioavailability [12]: 98.8%
inhibition [27]: inactive
IC50 [1]: 29 nM
half-life [8]: 136 min
IC50 [33]: 8.5 nM
Cmax [15]: 10700 ng/mL
inhibition [34]: inactive
IC50 [29]: 33 nM
logD [6]: 0.44
Structure (SMILES): CCC(=O)c1sc(-c2cccc(F)c2)nc1O

IC50 [1]: 32 nM
Structure (SMILES): CCOC(=O)c1sc(-c2ccccc2)nc1O

IC50 [1]: > 100000 nM
Structure (SMILES): COC(=O)c1nc(-c2ccccc2)sc1O

logP [17]: 3.77
pKa [2]: 6.3
remaining at 0.5 h [18]: 42%
logD [6]: 2.5
Structure (SMILES): COC(=O)c1sc(-c2ccccc2)nc1O

logP [17]: 3.6
remaining at 0.5 h [18]: 32%
IC50 [1]: 575 nM
Structure (SMILES): CCN(C(=O)/C=C/c1cccc([N+](=O)[O-])c1)c1ccccc1
